Key:
[1] = test system: Citrus Lemon Urika chlorotic foliage; assay: Biological activity of iron sprayed on chlorotic foliage (leaf color, chlorophyll, iron content, leaf burns); assay type: in vivo; settings: for Leaf Color: score 1 yellow, 2 light green, 3 vigorously green leaves
Excerpt: Effect of Ferri-Vant (Multi-Layer Adjuvant Coated Fe2(SO4)3 on the Biological Activity of Iron Sprayed on Citrus Lemon Urika Chlorotic Foliage
The Ferri-Vant effect was compared with the untreated control, Fe2(SO4)3 sprayed alone and Fe2(SO4)3 treated with the surfactant Silwet^R L-77. Ten leaves from five trees sprayed for each treatment were sampled and scored for green color. The scoring was based as follows: 1—yellow leaves; 2—light green leaves; 3—vigorously green leaves. Chlorophyll level was determined spectrophotometrically as reported by Moran [Moran, R., Plant Physiol. 69:1376-1381 […]]. Iron content was obtained using the ICP system and leaf burns were visually detected.

[2] = test system: Citrus Grandis isolated cuticles; assay: Penetration of phosphorous (32P) through isolated cuticles; assay type: in vitro ADME; settings: 60% relative humidity, 25° C.
Experimental: Effect of MKP-Nutri-Vant^R I on the Percent of Penetration of Phosphorous (^32P) Through Citrus Grandis Isolated Cuticles
(§1) The experiment was carried out for three weeks in a controlled shaking chamber set at 60% relative humidity and 25° C. The values are calculated from the transformation formula −ln(1−Mt/Mo). Mt is the accumulation of radioactivity penetrated in each time period tested; Mo is the total radioactivity applied to the isolated cuticle, based on Schönherr and Riederer [Schonherr, J. and M. Riederer, Plant Cell Environ. […] The values are the means of at least 20 replicates ±S.E.

Citrus Grandis leaves = assay: Penetration of phosphorous (32P) into leaves; assay type: in vitro ADME; settings: 60% relative humidity, 25° C.
Experimental: as §1
Effect of MKP-Nutri-Vant II on the Percent of Penetration of Phosphorous (^32P) into Citrus Grandis Leaves
The experiment was carried out for two weeks in a controlled shaking chamber set at 60% relative humidity and 25° C. All the details are similar to those in the previous table.

| Compound | Leaf Color ([1]; day 0) | Leaf Color ([1]; day 2) | Iron Content at day4 ([1]; day 4, leaves, ICP system) [mg/g] | Leaf Color ([1]; day 4) | Chlorophyll level at day 4, Chl. A ([1]; day 4, spectrophotometric) [mg/sq. cm leaf area] | Chlorophyll level at day 4, Chl. B ([1]; day 4, spectrophotometric) [mg/sq. cm leaf area] | Leaf Color ([1]; day 10) | % Penetration of 32P ([2]; 0 hours, mean of at least 20 replicates ±S.E.) [%] | % Penetration of 32P ([2]; 24 hours, mean ±S.E.) [%] | % Penetration of 32P ([2]; 48 hours, mean ±S.E.) [%] | % Penetration of 32P ([2]; 96 hours, mean ±S.E.) [%] | % Penetration of 32P ([2]; 168 hours, mean ±S.E.) [%] | % Penetration of 32P ([2]; 336 hours, mean ±S.E.) [%] | % Penetration of 32P ([2]; 504 hours, mean ±S.E.) [%] | % Penetration of 32P (Citrus Grandis leaves; 0 hours) [%] | % Penetration of 32P (Citrus Grandis leaves; 48 hours) [%] | % Penetration of 32P (Citrus Grandis leaves; 96 hours) [%] | % Penetration of 32P (Citrus Grandis leaves; 168 hours) [%] | % Penetration of 32P (Citrus Grandis leaves; 336 hours) [%] |
| --- | --- | --- | --- | --- | --- | --- | --- | --- | --- | --- | --- | --- | --- | --- | --- | --- | --- | --- | --- |
| O=S(=O)([O-])[O-].O=S(=O)([O-])[O-].O=S(=O)([O-])[O-].[Fe+3].[Fe+3] [Fe2(SO4)3 alone, Fe2(SO4)3] | 1 | 1 | 0.61 | 1.3 ± 0.4 | 2.8 | 1.2 | 1.2 ± 0.4 |  |  |  |  |  |  |  |  |  |  |  |  |
| O=P([O-])(O)O.[K+] [MK^32P alone, Monopotassium phosphate] |  |  |  |  |  |  |  | 0 | 2.6 ± 0.8 | 3.4 ± 1.1 | 5.7 ± 1.4 | 6.3 ± 1.9 | 7.5 ± 1.6 | 7.9 ± 1.9 | 0 | 3.1 ± 0.8 | 4.7 ± 0.6 | 5.5 ± 0.6 | 6.4 ± 0.4 |

— patent US20050064001A1, “Multi-layer adjuvants for controlled delivery of agro-materials into plant tissues” (priority 2001, published 2005)
